These results are taken from patent publication US12090164B2, “Genotype-agnostic rescue of cystic fibrosis with small molecule bicarbonate channels” (The Board of Trustees of the University of Illinois, priority 2017, dated 2024).

The conditions of assay [1]: aerosolized NaHCO3; cited from earlier work.
In assay [2] the test system is CuFi-1 epithelia. Put plainly: ASL height by confocal microscopy. The class given is cell-based, human. The method, then: (§1) ASL height was studied using an established fluorescent dye assay (60, 61). Small diameter NuLi and CuFi-1 cultured epithelia were used for this experiment (0.33 cm^2). 24 hours prior to the start of experiment, the apical side of all cultured epithelia was rinsed three times with warm PBS to remove excess mucus. NuLi epithelia were treated with perfluorocarbon (FC-72) vehicle or 500 µM basolateral bumetanide in DMSO vehicle applied to the media, and CuFi epithelia were treated with 20 μL vehicle, 0.005, 0.5, or 50 μM AmB, or 0.5 μM C35deOAmB suspended in perfluorocarbon (FC-72, Sigma), with or without 500 μM basolateral bumetanide in DMSO vehicle applied to the media and incubated for 24 hours at 37° C. After 24 hours, 2.5 μL of a 2 mg/mL 70 kDa Texas Red-dextran conjugate (Molecular Probes) solution in PBS was added to the apical side of the epithelia, followed by 100 μL of FC-770 to prevent evaporation. Then the culture support was placed on top of 100 μL of PBS on a 10 mm glass bottom Fluorodish for imaging (World Precision Instruments). Epithelia were imaged immediately after dye addition and again at 24 hours to examine dye absorption. Three Z-stack images per membrane were taken on an Zeiss LSM700 confocal microscope at 40× oil immersion. These images were analyzed using ImageJ (62) to determine the average ASL height in the center 1300 pixels of each image. Images were smoothed, converted to 8-bit, and thresholded to most accurately represent the red area. The parameters for Analyze Particles were particles from 1-Infinity μm^2 in size and from 0%-100% circularity. Height was determined by dividing the area output in pixels by the known 1300 pixel width and converted to microns using the known scaling factor of 0.49 µm/pixel.

Assay [3] concerns NuLi epithelia. Kind of assay: ASL height by confocal microscopy. The class given is cell-based, human. Particulars: bumetanide 500 μM. The method, then:
as §1

The subject of assay [4] is CuFi-1 (ΔF508/ΔF508) epithelia. Put plainly: ASL pH in cultured CF airway epithelia (SNARF-dextran). Type of assay: cell-based, human. Particulars: for ASL pH, apical addition: AmB or C35deOAmB 2 μM, ivacaftor/forskolin 10 μM, 2 h, vs vehicle. The protocol:
(§2) Small diameter NuLi, CuFi, and primary cultured epithelia were used for this experiment (0.33 cm^2). The ratiometric pH indicator SNARF-conjugated dextran (Molecular Probes) was used to measure ASL pH. SNARF powder was suspended via sonication in perfluorocarbon (FC-72, Sigma) and distributed onto the apical surface. ASL pH was measured 2 hr later (3, 4, 25). SNARF was excited at 488 nm and emission was recorded at 580 nm and 640 nm using a Zeiss LSM 800 microscope at 40× water immersion for cell line cultures and a Zeiss LSM 510 microscope for primary cultures. To generate a standard curve for pH determination, SNARF was dissolved in colorless pH standards and fluorescence ratios were converted to pH.
(§3) Agents tested in this assay were first lyophilized into powder and then suspended in the appropriate volume of perfluorocarbon (FC-72, Sigma) and sonicated for 1 minute to suspend. AmBisome should not be sonicated; instead, the fine powder was suspended by vortexing.
(§4) In all experiments, ASL pH of compound-treated epithelia was measured compared the results to vehicle-treated epithelia.
(§5) For apical AmB administration, cultured airway epithelia were incubated for 30 min-48 hrs at 37° C. before measurement of ASL pH. For AmB-cholesterol complex and C35deOAmB administration, cultured airway epithelia were incubated for 48 hrs at 37° C. before measurement of ASL pH. To test the effect of […] ATPase inhibition, AmB was administered 47 hours prior to 10 mM ouabain addition, and cultured airway epithelia were incubated for an additional 1 hr at 37° C. before measurement of ASL pH. For 10 μM ivacaftor/10 μM forskolin administration, cultured airway epithelia were incubated for 2 hrs at 37° C. before measurement of ASL pH (25). For basolateral AmB administration, a 2 mM stock of AmB in DMSO was diluted 1000-fold to a final concentration of 2 μM in USG media. The basolateral media of cultured airway epithelia was replaced with the AmB-containing USG media and incubated for 48 hrs at 37° C. before measurement of ASL pH.

Assay [5] deals with CuFi-4 (G551D/ΔF508) epithelia. The assay is described as above. The class given is cell-based, human. The protocol: as §2, §3, §4, §5
The test system of assay [6] is CuFi-1 (ΔF508/ΔF508) epithelia. Kind of assay: Basolateral to apical H14CO3- transport. Particulars: for basolateral to apical H^14CO3^− transport, apical addition: over 10 minutes, AmB or C35deOAmB 2 μM, ivacaftor/forskolin 10 μM. Type of assay: cell-based, human. The protocol:
(§6) Small diameter NuLi and CuFi cultured epithelia were used for this experiment (0.33 cm^2). ^14C-labeled sodium HCO3^− was obtained as a sterile 35.7 mM aqueous solution pH 9.5 (MP Biomedicals 0117441H). All experiments were run less than 2 months post seeding. Fresh USG media was added to the basolateral side prior to experimentation. The apical membrane was treated with 20 μL of vehicle, AmB, or ivacaftor/forskolin as a suspension in perfluorocarbon-72 (Sigma Aldrich), and the cultured epithelia were incubated for 48 hours, 7 days, 14 days, or 28 days at 37° C. in a 5% C02 atmosphere. After the end of the treatment period, 5 μL of a 1.4 mM H^14CO3^− stock solution in USG media was added to the basolateral media. The cultured epithelia were then incubated at 37° C. for 10 minutes. After 10 minutes, the apical membrane of the cultured epithelia was immediately washed with 200 μL of PBS. The ASL wash and a 200 μL aliquot of the basolateral media were diluted in scintillation cocktail and analyzed via liquid scintillation counting (23).

Assay [7] relates to CuFi-4 (G551D/ΔF508) epithelia. Kind of assay: Basolateral to apical H14CO3- transport. Type of assay: cell-based, human. Particulars: AmB 2 μM, ivacaftor/forskolin 10 μM. The method, then:
as §6

The test system of assay [8] is primary sinonasal epithelia from a patient with a G551D mutation. Particulars: relative to untreated controls; cited from earlier work.
Assay [9] relates to CF patients having at least one G551D allele. Particulars: clinical trials; cited from earlier work.
Assay [10] concerns the target V520F allele (Homo sapiens, UniProt P13569, V520F). Particulars: V520F allele (D259G/V520F); cited from earlier work.
The test system of assay [11] is CF epithelia that lack a G551D or similar allele. The settings on record: cited from earlier work.
Assay [12] deals with CuFi-1 (ΔF508/ΔF508) airway epithelia. Kind of assay: Ussing chamber permeabilization of differentiated CF airway epithelia. Particulars: differentiated CuFi-1 epithelia. Type of assay: cell-based, human. The protocol:
A series of natural products and synthetic compounds reported previously to permeabilize liposomes, cells, and/or nasal epithelia of mice to anions (11-14) were tested using an Ussing chamber and differentiated cultures of airway epithelia derived from an immortalized airway epithelial cell line from a CF patient having the most common ΔF508/ΔF508 genotype (CuFi-1) (15). […] The capacity for AmB and C35deOAmB to transport bicarbonate across cholesterol-containing POPC liposomes was tested using an adapted ^13C NMR-based assay (18).

The test system of assay [13] is primary cultured airway epithelia derived from humans with CF. Kind of assay: ASL pH in primary cultured airway epithelia from CF donors. Type of assay: cell-based, human. Particulars: 9 donors, 2 μM, 48 h. The protocol:
Airway epithelial cells were obtained from human trachea and bronchi of CF and non-CF specimens obtained from the Iowa Donor Network, either as post-mortem specimens or from tissue deemed not fit for transplant. Studies were approved by the University of Iowa Institutional Review Board. After pronase enzymatic digestion, cells were seeded onto collagen-coated semi-permeable membranes (0.33-1.12 cm^2, Corning 3470 polyester, 3460 polyester, 3413 polycarbonate) and grown at an air-liquid interface (52). Airway epithelial cell cultures were analyzed after they had differentiated and at least 14 days post-seeding.
as §2, §3, §4, §5

Assay [14] relates to ASL of primary CF epithelia; Staphylococcus aureus killed. Kind of assay: ASL antibacterial activity (S. aureus-coated gold grids). Type of assay: cell-based, human. The settings on record: 2 μM, 48 h. The method, then: Staphylococcus aureus-coated gold grids were used to measure antibacterial activity of airway epithelial cultures (3, 4). Small diameter primary cultured epithelia were used for this experiment (0.33 cm^2). Bacteria-coated gold TEM grids were placed onto the apical surface of airway epithelia for 1 min after 48 hours of perfluorocarbon (FC-72, Sigma), 2 μM AmB, or 2 μM C35deOAmB treatment. As controls, bacteria-coated grids were also placed in saline or AmB in FC-72 laid over saline to simulate the administration method for 1 minute. After removal, bacteria on the grids were assessed for viability using Live/Dead BacLight Bacterial Viability assay (Invitrogen). Viability was determined in 4-6 fields to determine the percentages of dead bacteria.

Assay [15] concerns protein ion channel-deficient yeast. The settings on record: cited from earlier work.
Assay [16] deals with yeast. Particulars: cited from earlier work.

“Also recorded” adds a separate entry of the source.

V520F allele, sequence (P13569 whole entry V520F): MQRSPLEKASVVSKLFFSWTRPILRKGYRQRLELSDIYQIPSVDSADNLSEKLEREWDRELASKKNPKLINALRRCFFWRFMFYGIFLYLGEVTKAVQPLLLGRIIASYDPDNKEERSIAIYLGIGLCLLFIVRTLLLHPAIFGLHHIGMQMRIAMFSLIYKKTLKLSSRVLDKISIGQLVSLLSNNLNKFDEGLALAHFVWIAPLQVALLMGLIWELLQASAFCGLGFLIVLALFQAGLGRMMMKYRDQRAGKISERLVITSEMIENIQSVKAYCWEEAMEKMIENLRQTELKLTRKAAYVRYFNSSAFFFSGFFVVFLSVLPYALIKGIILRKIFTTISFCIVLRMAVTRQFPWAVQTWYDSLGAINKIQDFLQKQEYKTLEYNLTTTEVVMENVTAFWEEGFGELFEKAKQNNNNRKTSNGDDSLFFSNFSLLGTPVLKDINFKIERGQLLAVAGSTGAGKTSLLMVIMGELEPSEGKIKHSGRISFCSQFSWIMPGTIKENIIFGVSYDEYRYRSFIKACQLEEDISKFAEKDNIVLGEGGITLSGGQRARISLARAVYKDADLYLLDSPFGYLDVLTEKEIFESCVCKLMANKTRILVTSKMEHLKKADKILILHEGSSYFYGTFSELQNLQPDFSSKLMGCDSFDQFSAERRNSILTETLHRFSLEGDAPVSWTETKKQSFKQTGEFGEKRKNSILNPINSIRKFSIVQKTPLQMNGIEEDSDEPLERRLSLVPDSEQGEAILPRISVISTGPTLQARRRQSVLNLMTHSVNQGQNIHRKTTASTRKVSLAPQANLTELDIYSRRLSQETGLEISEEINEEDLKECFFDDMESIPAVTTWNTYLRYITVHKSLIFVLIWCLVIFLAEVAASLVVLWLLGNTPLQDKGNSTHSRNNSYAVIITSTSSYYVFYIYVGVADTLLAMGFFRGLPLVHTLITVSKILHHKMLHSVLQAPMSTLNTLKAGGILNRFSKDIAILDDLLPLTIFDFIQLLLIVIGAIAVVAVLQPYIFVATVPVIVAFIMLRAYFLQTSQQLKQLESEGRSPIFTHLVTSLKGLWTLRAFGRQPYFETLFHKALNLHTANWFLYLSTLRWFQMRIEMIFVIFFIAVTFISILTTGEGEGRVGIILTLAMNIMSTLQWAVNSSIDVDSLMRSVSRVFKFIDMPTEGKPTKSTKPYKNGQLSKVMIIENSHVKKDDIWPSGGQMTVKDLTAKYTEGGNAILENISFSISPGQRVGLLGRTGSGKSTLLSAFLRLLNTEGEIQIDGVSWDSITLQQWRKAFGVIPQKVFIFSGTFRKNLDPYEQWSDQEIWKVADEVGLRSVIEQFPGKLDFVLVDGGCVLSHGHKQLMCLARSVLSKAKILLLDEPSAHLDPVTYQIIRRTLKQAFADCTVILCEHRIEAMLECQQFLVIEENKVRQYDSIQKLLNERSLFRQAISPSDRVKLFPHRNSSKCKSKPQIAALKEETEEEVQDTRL

For the compound `O=C([O-])O.[Na+]` [NaHCO3], the “duration of transient increase in pH” value in [1] is reported as about 15 minutes.

Turning to `CCCCNc1cc(C(=O)O)cc(S(N)(=O)=O)c1Oc1ccccc1` [bumetanide], the “effect of basolateral bumetanide on AmB-mediated increase in ASL height” value in [2] (bumetanide 500 μM) is “abolished the AmB-mediated increase in ASL height”. The “ASL height after basolateral bumetanide” value in assay [3] was “decreased ASL height in NuLi epithelia”.

In the case of `CC(C)(C)c1cc(C(C)(C)C)c(NC(=O)c2c[nH]c3ccccc3c2=O)cc1O` [ivacaftor], the “ASL pH, apical addition” value in [4] is reported as “showed no increase in ASL pH”; in assay [4] (listed as Ivacaftor) it was “failed to increase ASL pH or H^14CO3^− secretion”; in assay [4] (listed as ivacaftor/forskolin) it was “an increase in ASL pH was not observed”. Besides, the “increase in ASL pH” value in assay [5] (AmB 2 μM, ivacaftor/forskolin 10 μM) is 0.2 unit; in assay [8], 0.20 units. For the same compound, in [5] (apical AmB 2 μM 48 h, ivacaftor/forskolin 10 μM 2 h), the “ASL pH” value is “increase ASL pH”. The figures for the “basolateral to apical H^14CO3^− transport, apical addition” value in [6] (listed as Ivacaftor) and in assay [6] (listed as ivacaftor/forskolin) were “failed to increase ASL pH or H^14CO3^− secretion” and “did not”, respectively. The “H^14CO3^− transepithelial transport” value in assay [7] is “increased the rate of bicarbonate efflux”; in [7] (listed as ivacaftor/forskolin), “increase H^14CO3-transepithelial transport”. Besides, the decrease in viscosity result in assay [8] is recorded as “about 1.5 units”. Also, in assay [9], the “increase in forced expiratory volume” value is reported as 10%. For the same compound, the other clinical outcomes in assay [9] was “substantially improved body weight, quality of life, and incidence of pulmonary exacerbation; also recorded: improved FEV1”. Besides, the response to ivacaftor entry in [10] is given as “refractory to treatment with ivacaftor”. Moreover, the “benefit in CF epithelia without G551D” value in [11] is “does not show benefit in CF epithelia that lack a G551D or similar allele”.

For the compound `C[C@@H]1O[C@@H](O[C@H]2C[C@@H](O)[C@]3(CO)[C@H]4[C@H](O)C[C@]5(C)[C@@H](C6=CC(=O)OC6)CC[C@]5(O)[C@@H]4CC[C@]3(O)C2)[C@H](O)[C@H](O)[C@H]1O` [ouabain], the “effect of basolateral ouabain on AmB-mediated increase in ASL pH” value in assay [4] (AmB 2 μM 48 h, ouabain 10 mM) is on record as “abrogated; also recorded: abolished”. The “effect of basolateral ouabain on AmB-mediated increase in H^14CO3^− transport” value in assay [6] (AmB 2 μM, ouabain 10 mM) is listed as “abrogated; also recorded: abolished”.

With C35-deoxyamphotericin B [C35deOAmB], in assay [12], the “change in short circuit current / permeabilization of epithelia” value is recorded as “Little or no permeabilization”. For the same compound, the “ASL pH, apical addition” value in [4] is “an increase in ASL pH was not observed; also recorded: No increase in pH was observed; also recorded: did not raise ASL pH or increase H^14CO3^− secretion”; in [13], “did not increase ASL pH”. The “basolateral to apical H^14CO3^− transport, apical addition” value in assay [6] is listed as “did not; also recorded: caused no increase ASL ^14C bicarbonate; also recorded: did not raise ASL pH or increase H^14CO3^− secretion”. The “ASL antibacterial activity (% of S. aureus killed after exposure to ASL)” value in [14] is reported as “had no effect”. Moreover, the “ASL height, apical addition” value in assay [2] (0.5 μM) is on record as “did not increase ASL height”. Further, in assay [15], the yeast growth rescue result is listed as “failed to rescue yeast growth at any tested concentration; also recorded: did not”. Besides, the “toxicity / fungicidal activity to yeast” value in [16] is “still maintains potent fungicidal activity”.
